What all share (assay type): functional
For experiment [1], the system named is Staphylococcus aureus. The experiment in a line: Antibacterial activity against methicillin-resistant Staphylococcus aureus N315 assessed as inhibition of bacterial growth measured after 24 hrs incubation.
For the next experiment, the system named is Acinetobacter baumannii. The experiment in a line: Antibacterial activity against Acinetobacter baumannii assessed as inhibition of bacterial growth measured after 24 hrs incubation.
The test system of a further experiment is Enterococcus faecalis. Briefly: Antibacterial activity against Enterococcus faecalis assessed as inhibition of bacterial growth measured after 24 hrs incubation.
The subject of the next experiment is Klebsiella pneumoniae. Briefly: Antibacterial activity against Klebsiella pneumonia assessed as inhibition of bacterial growth measured after 24 hrs incubation.
The test system of experiment [2] is Staphylococcus aureus. The experiment in a line: Antibacterial activity against Staphylococcus aureus assessed as inhibition of bacterial growth measured after 24 hrs incubation.
The subject of experiment [3] is Escherichia coli. The experiment in a line: Antibacterial activity against Escherichia coli ATCC 25922 assessed as inhibition of bacterial growth measured after 24 hrs incubation.
The subject of experiment [4] is Pseudomonas aeruginosa. The experiment in a line: Antibacterial activity against Pseudomonas aeruginosa assessed as inhibition of bacterial growth measured after 24 hrs incubation.
Experiment [5] relates to Staphylococcus aureus. Briefly: Antibacterial activity against Staphylococcus aureus ATCC 29213 assessed as inhibition of bacterial growth measured after 24 hrs incubation.
Experiment [6] deals with Pseudomonas aeruginosa. Briefly: Antibacterial activity against Pseudomonas aeruginosa ATCC 27853 assessed as inhibition of bacterial growth measured after 24 hrs incubation.
For experiment [7], the system named is Escherichia coli. Briefly: Antibacterial activity against Escherichia coli assessed as inhibition of bacterial growth measured after 24 hrs incubation.
Experiment [8] has as its system Staphylococcus aureus. Briefly: Antibacterial activity against Staphylococcus aureus ATCC 25923 assessed as inhibition of bacterial growth measured after 24 hrs incubation.

In brackets after ≈: the same amount, converted by molar mass.

The text below walks through data of ChEMBL document CHEMBL5512655, “Discovery of indolylacryloyl-derived oxacins as novel potential broad-spectrum antibacterial candidates” (Eur J Med Chem, 2024).

For orientation: MIC means the smallest concentration in the dilution series that meets the test's criterion for growth inhibition.

In the case of `CCOC(=O)Cn1cc(/C=C(\C#N)C(=O)N2CCN(c3cc4c(cc3F)c(=O)c(C(=O)O)cn4CC=C(C)C)CC2)c2ccccc21`, the MIC worked out at 8 µg/mL (≈ 12.5 µM) with Staphylococcus aureus [1]; 16 µg/mL (≈ 25 µM) in the experiment on Acinetobacter baumannii; 0.25 µg/mL (≈ 0.391 µM) in the experiment with Enterococcus faecalis; 1 µg/mL (≈ 1.56 µM) in the experiment on Klebsiella pneumoniae; 16 µg/mL (≈ 25 µM) in the experiment with Staphylococcus aureus [2]; 0.5 µg/mL (≈ 0.782 µM) with Escherichia coli [3]. The MIC in the experiment with Pseudomonas aeruginosa [4] worked out at 16 µg/mL (≈ 25 µM); with Staphylococcus aureus [5], 8 µg/mL (≈ 12.5 µM); with Pseudomonas aeruginosa [6], 16 µg/mL (≈ 25 µM); in the experiment on Escherichia coli [7] it was 32 µg/mL (≈ 50 µM); with Staphylococcus aureus [8], 16 µg/mL (≈ 25 µM).
Regarding `CCn1cc(C(=O)O)c(=O)c2cc(F)c(N3CCN(C(=O)/C(C#N)=C/c4c[nH]c5ccccc45)CC3)cc21`, the MIC was found to be 0.5 µg/mL (≈ 0.974 µM) in the experiment with Staphylococcus aureus [1]; 0.25 µg/mL (≈ 0.487 µM) in the experiment on Acinetobacter baumannii; 0.25 µg/mL (≈ 0.487 µM) in the experiment on Enterococcus faecalis; 0.25 µg/mL (≈ 0.487 µM) in the experiment on Klebsiella pneumoniae; 4 µg/mL (≈ 7.79 µM) with Staphylococcus aureus [2]; 0.25 µg/mL (≈ 0.487 µM) in the experiment on Escherichia coli [3]. The MIC in the experiment with Pseudomonas aeruginosa [4] stood at 1 µg/mL (≈ 1.95 µM); in the experiment with Staphylococcus aureus [5], 0.5 µg/mL (≈ 0.974 µM); in the experiment on Pseudomonas aeruginosa [6], 0.5 µg/mL (≈ 0.974 µM); in the experiment with Escherichia coli [7], 0.5 µg/mL (≈ 0.974 µM); in the experiment with Staphylococcus aureus [8], 1 µg/mL (≈ 1.95 µM).
As for `CCn1cc(C(=O)O)c(=O)c2cc(F)c(N3CCN(C(=O)/C(C#N)=C/c4cn(CC(=O)N5CCOCC5)c5ccccc45)CC3)cc21`, the MIC is 2 µg/mL (≈ 3.12 µM) in the experiment with Staphylococcus aureus [1]; 0.5 µg/mL (≈ 0.78 µM) in the experiment on Acinetobacter baumannii; 1 µg/mL (≈ 1.56 µM) in the experiment with Enterococcus faecalis; 1 µg/mL (≈ 1.56 µM) in the experiment on Klebsiella pneumoniae; 8 µg/mL (≈ 12.5 µM) in the experiment with Staphylococcus aureus [2]; 0.5 µg/mL (≈ 0.78 µM) with Escherichia coli [3]. Besides, the MIC with Pseudomonas aeruginosa [4] was 1 µg/mL (≈ 1.56 µM); in the experiment on Staphylococcus aureus [5] it was 4 µg/mL (≈ 6.24 µM); in the experiment with Pseudomonas aeruginosa [6], 0.25 µg/mL (≈ 0.39 µM); with Escherichia coli [7] it was 0.5 µg/mL (≈ 0.78 µM); in the experiment with Staphylococcus aureus [8], 2 µg/mL (≈ 3.12 µM).
With `CCn1cc(C(=O)O)c(=O)c2cc(F)c(N3CCN(C(=O)/C(C#N)=C/c4cn(CC(=O)O)c5ccccc45)CC3)cc21`, the MIC worked out at 0.5 µg/mL (≈ 0.875 µM) with Staphylococcus aureus [1]; 0.25 µg/mL (≈ 0.437 µM) in the experiment with Acinetobacter baumannii; 0.5 µg/mL (≈ 0.875 µM) with Enterococcus faecalis; 0.25 µg/mL (≈ 0.437 µM) in the experiment with Klebsiella pneumoniae; 2 µg/mL (≈ 3.5 µM) with Staphylococcus aureus [2]; 0.5 µg/mL (≈ 0.875 µM) in the experiment on Escherichia coli [3]. Also, the MIC in the experiment on Pseudomonas aeruginosa [4] is 0.5 µg/mL (≈ 0.875 µM); in the experiment with Staphylococcus aureus [5], 1 µg/mL (≈ 1.75 µM); with Pseudomonas aeruginosa [6], 0.5 µg/mL (≈ 0.875 µM); in the experiment on Escherichia coli [7], 0.5 µg/mL (≈ 0.875 µM); in the experiment with Staphylococcus aureus [8], 0.5 µg/mL (≈ 0.875 µM).
With `CCn1cc(C(=O)O)c(=O)c2cc(F)c(N3CCN(C(=O)/C(C#N)=C/c4cn(CC5CCCC5)c5ccccc45)CC3)cc21`, the MIC in the experiment with Staphylococcus aureus [1] stood at 32 µg/mL (≈ 53.7 µM); with Acinetobacter baumannii, 16 µg/mL (≈ 26.9 µM); in the experiment with Enterococcus faecalis it was 8 µg/mL (≈ 13.4 µM); in the experiment with Klebsiella pneumoniae, 0.5 µg/mL (≈ 0.839 µM); in the experiment on Staphylococcus aureus [2] it was 16 µg/mL (≈ 26.9 µM); in the experiment on Escherichia coli [3], 1 µg/mL (≈ 1.68 µM). For the same compound, the MIC with Pseudomonas aeruginosa [4] was found to be 0.5 µg/mL (≈ 0.839 µM); in the experiment with Staphylococcus aureus [5], 2 µg/mL (≈ 3.36 µM); in the experiment on Pseudomonas aeruginosa [6] it was 1 µg/mL (≈ 1.68 µM); with Escherichia coli [7] it was 4 µg/mL (≈ 6.72 µM); in the experiment with Staphylococcus aureus [8], 1 µg/mL (≈ 1.68 µM).
Consider `CCn1cc(C(=O)O)c(=O)c2cc(F)c(N3CCN(C(=O)/C(C#N)=C/c4cn(CC(N)=O)c5ccccc45)CC3)cc21`, for which the minimal inhibitory concentration (MIC) in the experiment with Staphylococcus aureus [1] came to 0.25 µg/mL (≈ 0.438 µM); in the experiment on Acinetobacter baumannii, 8 µg/mL (≈ 14 µM); in the experiment on Enterococcus faecalis, 16 µg/mL (≈ 28 µM); in the experiment on Klebsiella pneumoniae, 1 µg/mL (≈ 1.75 µM); with Staphylococcus aureus [2], 32 µg/mL (≈ 56.1 µM); in the experiment with Escherichia coli [3] it was 0.25 µg/mL (≈ 0.438 µM). The MIC with Pseudomonas aeruginosa [4] was determined as 8 µg/mL (≈ 14 µM); in the experiment with Staphylococcus aureus [5], 16 µg/mL (≈ 28 µM); with Pseudomonas aeruginosa [6], 1 µg/mL (≈ 1.75 µM); with Escherichia coli [7] it was 0.5 µg/mL (≈ 0.876 µM); with Staphylococcus aureus [8], 8 µg/mL (≈ 14 µM).
For `CCn1cc(C(=O)O)c(=O)c2cc(F)c(N3CCN(C(=O)/C(C#N)=C/c4c(C)[nH]c5ccccc45)CC3)cc21`, the MIC was determined as 2 µg/mL (≈ 3.79 µM) with Staphylococcus aureus [1]; 1 µg/mL (≈ 1.9 µM) with Acinetobacter baumannii; 1 µg/mL (≈ 1.9 µM) in the experiment on Enterococcus faecalis; 2 µg/mL (≈ 3.79 µM) in the experiment on Klebsiella pneumoniae; 1 µg/mL (≈ 1.9 µM) with Staphylococcus aureus [2]; 0.25 µg/mL (≈ 0.474 µM) in the experiment with Escherichia coli [3]. The MIC in the experiment with Pseudomonas aeruginosa [4] was 1 µg/mL (≈ 1.9 µM); in the experiment on Staphylococcus aureus [5] it was 0.25 µg/mL (≈ 0.474 µM); with Pseudomonas aeruginosa [6], 0.5 µg/mL (≈ 0.948 µM); in the experiment on Escherichia coli [7], 1 µg/mL (≈ 1.9 µM); with Staphylococcus aureus [8] it was 4 µg/mL (≈ 7.58 µM).
For the compound `CCn1cc(C(=O)O)c(=O)c2cc(F)c(N3CCN(C(=O)/C(C#N)=C/c4c[nH]c5ccc(Cl)cc45)CC3)cc21`, the MIC in the experiment on Staphylococcus aureus [1] is 1 µg/mL (≈ 1.82 µM); in the experiment on Acinetobacter baumannii, 1 µg/mL (≈ 1.82 µM); in the experiment with Enterococcus faecalis it was 1 µg/mL (≈ 1.82 µM); in the experiment on Klebsiella pneumoniae, 1 µg/mL (≈ 1.82 µM); in the experiment on Staphylococcus aureus [2], 1 µg/mL (≈ 1.82 µM); in the experiment on Escherichia coli [3], 0.25 µg/mL (≈ 0.456 µM). Besides, the minimum inhibitory concentration (MIC) is 2 µg/mL (≈ 3.65 µM) in the experiment with Pseudomonas aeruginosa [4]; 2 µg/mL (≈ 3.65 µM) in the experiment on Staphylococcus aureus [5]; 0.25 µg/mL (≈ 0.456 µM) in the experiment on Pseudomonas aeruginosa [6]; 0.25 µg/mL (≈ 0.456 µM) with Escherichia coli [7]; 16 µg/mL (≈ 29.2 µM) in the experiment on Staphylococcus aureus [8].
In the case of `CCn1cc(C(=O)O)c(=O)c2cc(F)c(N3CCN(C(=O)/C(C#N)=C/c4cn(Cc5ccc(Cl)c(Cl)c5)c5ccccc45)CC3)cc21`, the MIC with Staphylococcus aureus [1] is 4 µg/mL (≈ 5.95 µM); in the experiment on Acinetobacter baumannii, 64 µg/mL (≈ 95.2 µM); in the experiment with Enterococcus faecalis, 32 µg/mL (≈ 47.6 µM); with Klebsiella pneumoniae it was 1 µg/mL (≈ 1.49 µM); with Staphylococcus aureus [2] it was 16 µg/mL (≈ 23.8 µM); in the experiment on Escherichia coli [3], 32 µg/mL (≈ 47.6 µM). The MIC turned out to be 2 µg/mL (≈ 2.97 µM) in the experiment with Pseudomonas aeruginosa [4]; 64 µg/mL (≈ 95.2 µM) in the experiment with Staphylococcus aureus [5]; 1 µg/mL (≈ 1.49 µM) in the experiment on Pseudomonas aeruginosa [6]; 8 µg/mL (≈ 11.9 µM) in the experiment with Escherichia coli [7]; 64 µg/mL (≈ 95.2 µM) in the experiment with Staphylococcus aureus [8].
